From ChEMBL document CHEMBL3885861, “Open TG-GATES”

Organism: Rattus norvegicus
Test: Open TG-GATES - Regimen: Single
Type: toxicity, organism-based, Sprague-Dawley
Set-up: regimen Single, gender Male, age 6 weeks
Conditions: in vivo, po, 20 mg/kg, route gavage, dose level Middle; for APTT / Bas / Eos / Fbg / Hb / Ht / Lym / MCH / MCHC / MCV / Mono / Neu / PT / Plat / RBC / Ret / WBC: tissue Blood; for KIDNEY_L / KIDNEY_R / KIDNEY_TOTAL: tissue Kidney; for LIVER: tissue Liver; for A/G / ALP / ALT / AST / BUN / CRE / Ca / Cl / DBIL / GLC / IP / K / LDH / Na / PL / RALB / TBIL / TC / TG / TP / gamma-GTP: tissue Plasma

CC(C)NNC(=O)c1ccncc1 [IPRONIAZID]
TERMINAL_BW (3 h): 203.6 g
APTT (3 h): 21.7 s
Bas (3 h): 0%
Eos (3 h): 1%
Fbg (3 h): 321.4 mg/dL
Hb (3 h): 12.8 g/dL
Ht (3 h): 37.7%
Lym (3 h): 78.8%
MCH (3 h): 21.6 pg
MCHC (3 h): 34.1%
MCV (3 h): 63.4 fL
Mono (3 h): 2%
Neu (3 h): 17.8%
PT (3 h): 16.3 s
Plat (3 h): 114.7 x10_4/uL
RBC (3 h): 594.6 x10_4/ul
Ret (3 h): 8.2%
WBC (3 h): 62.7 x10_2/uL
KIDNEY_L (3 h): 1 g
KIDNEY_R (3 h): 1 g
KIDNEY_TOTAL (3 h): 1.9 g
LIVER (3 h): 9.6 g
A/G (3 h): 1.3
ALP (3 h): 1741.8 IU/L
ALT (3 h): 35.4 IU/L
AST (3 h): 73.2 IU/L
BUN (3 h): 12.4 mg/dL
CRE (3 h): 0.2 mg/dL
Ca (3 h): 10.7 mg/dL
Cl (3 h): 107.2 meq/L
DBIL (3 h): 0.006 mg/dL
GLC (3 h): 182.8 mg/dL
IP (3 h): 8.8 mg/dL
K (3 h): 4 meq/L
LDH (3 h): 229.4 IU/L
Na (3 h): 142 meq/L
PL (3 h): 143.6 mg/dL
RALB (3 h): 3.2 g/dL
TBIL (3 h): 0.01 mg/dL
TC (3 h): 78.8 mg/dL
TG (3 h): 58.8 mg/dL
TP (3 h): 5.7 g/dL
gamma-GTP (3 h): 1.2 IU/L
TERMINAL_BW (6 h): 213.3 g
APTT (6 h): 23.3 s
Bas (6 h): 0%
Eos (6 h): 0.6%
Fbg (6 h): 324.6 mg/dL
Hb (6 h): 13.2 g/dL
Ht (6 h): 38.9%
Lym (6 h): 72.6%
MCH (6 h): 21.5 pg
MCHC (6 h): 34.1%
MCV (6 h): 63.1 fL
Mono (6 h): 2.6%
Neu (6 h): 23.6%
PT (6 h): 15.6 s
Plat (6 h): 118.4 x10_4/uL
RBC (6 h): 615.8 x10_4/ul
Ret (6 h): 8%
WBC (6 h): 79 x10_2/uL
KIDNEY_L (6 h): 1 g
KIDNEY_R (6 h): 1 g
KIDNEY_TOTAL (6 h): 1.9 g
LIVER (6 h): 9.4 g
A/G (6 h): 1.2
ALP (6 h): 1382.2 IU/L
ALT (6 h): 34.4 IU/L
AST (6 h): 72.8 IU/L
BUN (6 h): 10.4 mg/dL
CRE (6 h): 0.1 mg/dL
Ca (6 h): 10.6 mg/dL
Cl (6 h): 107 meq/L
DBIL (6 h): 0.002 mg/dL
GLC (6 h): 178.8 mg/dL
IP (6 h): 10.3 mg/dL
K (6 h): 4.3 meq/L
LDH (6 h): 212.6 IU/L
Na (6 h): 142 meq/L
PL (6 h): 154.6 mg/dL
RALB (6 h): 2.9 g/dL
TBIL (6 h): 0.008 mg/dL
TC (6 h): 86.4 mg/dL
TG (6 h): 68.2 mg/dL
TP (6 h): 5.4 g/dL
gamma-GTP (6 h): 1.2 IU/L
TERMINAL_BW (9 h): 207.6 g
APTT (9 h): 22.8 s
Bas (9 h): 0%
Eos (9 h): 1%
Fbg (9 h): 306.4 mg/dL
Hb (9 h): 13.1 g/dL
Ht (9 h): 37.8%
Lym (9 h): 76.4%
MCH (9 h): 21.4 pg
MCHC (9 h): 34.6%
MCV (9 h): 61.8 fL
Mono (9 h): 2.6%
Neu (9 h): 19.4%
PT (9 h): 15.5 s
Plat (9 h): 116.3 x10_4/uL
RBC (9 h): 612.4 x10_4/ul
Ret (9 h): 7.7%
WBC (9 h): 87.5 x10_2/uL
KIDNEY_L (9 h): 1 g
KIDNEY_R (9 h): 1 g
KIDNEY_TOTAL (9 h): 2 g
LIVER (9 h): 8.6 g
A/G (9 h): 1.3
ALP (9 h): 1268.2 IU/L
ALT (9 h): 35 IU/L
AST (9 h): 70.2 IU/L
BUN (9 h): 8.4 mg/dL
CRE (9 h): 0.2 mg/dL
Ca (9 h): 10.6 mg/dL
Cl (9 h): 106.6 meq/L
DBIL (9 h): 0.01 mg/dL
GLC (9 h): 176.2 mg/dL
IP (9 h): 10.2 mg/dL
K (9 h): 4.2 meq/L
LDH (9 h): 171 IU/L
Na (9 h): 141.4 meq/L
PL (9 h): 130.4 mg/dL
RALB (9 h): 3 g/dL
TBIL (9 h): 0.02 mg/dL
TC (9 h): 79.2 mg/dL
TG (9 h): 35.8 mg/dL
TP (9 h): 5.4 g/dL
gamma-GTP (9 h): 1 IU/L
TERMINAL_BW (24 h): 213.8 g
APTT (24 h): 21.6 s
Bas (24 h): 0%
Eos (24 h): 0.6%
Fbg (24 h): 318.8 mg/dL
Hb (24 h): 12.9 g/dL
Ht (24 h): 37.7%
Lym (24 h): 76.8%
MCH (24 h): 20.9 pg
MCHC (24 h): 34.2%
MCV (24 h): 60.9 fL
Mono (24 h): 2%
Neu (24 h): 19.6%
PT (24 h): 15.9 s
Plat (24 h): 125.4 x10_4/uL
RBC (24 h): 618.2 x10_4/ul
Ret (24 h): 7.7%
WBC (24 h): 81.3 x10_2/uL
KIDNEY_L (24 h): 1 g
KIDNEY_R (24 h): 1 g
KIDNEY_TOTAL (24 h): 1.9 g
LIVER (24 h): 10.1 g
A/G (24 h): 1.2
ALP (24 h): 1498.8 IU/L
ALT (24 h): 38.2 IU/L
AST (24 h): 73 IU/L
BUN (24 h): 17.8 mg/dL
CRE (24 h): 0.2 mg/dL
Ca (24 h): 10.9 mg/dL
Cl (24 h): 105.4 meq/L
DBIL (24 h): 0.006 mg/dL
GLC (24 h): 177.6 mg/dL
IP (24 h): 8 mg/dL
K (24 h): 4.5 meq/L
LDH (24 h): 275.4 IU/L
Na (24 h): 141.6 meq/L
PL (24 h): 134.8 mg/dL
RALB (24 h): 3 g/dL
TBIL (24 h): 0.006 mg/dL
TC (24 h): 73 mg/dL
TG (24 h): 85.6 mg/dL
TP (24 h): 5.5 g/dL
gamma-GTP (24 h): 1.6 IU/L
